# Where no end group is shown, it is not given here.
# Legend:
# HCT116 cells = type: cell-based, human
substance,measurement,setting,value
KKALLHAALAHLLALAHHLLALLKKA-NH2 [Vectofusin-1],aggregation of viral particles (pull-down),VSV-G-LV particles,"aggregation of viral particles, like it is the case for Vectofusin-1"
KLALKLALKALKAALKA G TNVFNATFEIWHDGEFGT (KLALKLALKALKAALKAGTNVFNATFEIWHDGEFGT; Synthetic MAP-B1) [MAP-Beclin1],capacity to promote lentiviral transduction,HCT116 cells,as efficient as TB1
"TNVFNATFEIWHDGEFGT (Synthetic modified beclin-1 267-284) [the 267-284 modified beclin1 domain, reference compound]",capacity to promote lentiviral transduction,HCT116 cells,neither Tat nor Bec peptides are capable to promote lentiviral transduction
"YGRKKRRQRRR (Synthetic Tat (47-57)) [the Tat transduction domain, reference compound]",capacity to promote lentiviral transduction,HCT116 cells,neither Tat nor Bec peptides are capable to promote lentiviral transduction
YGRKKRRQRRR GG FEIWHDGEFGTINNFRLGRLPSVPV (YGRKKRRQRRRGGFEIWHDGEFGTINNFRLGRLPSVPV; Synthetic TB1 274-298) [Tat-Bec(274-298)],capacity to promote lentiviral transduction at 2.5 μM,HCT116 cells,"most of the derivatives are a lot more efficient than TB1, except for Tat-Bec(274-298)"
YGRKKRRQRRR GG INCFTATFEIWVEGPLGV (YGRKKRRQRRRGGINCFTATFEIWVEGPLGV; Synthetic TAT+ GG + Beclin2) [Tat-Bec2WT],effect on lentiviral transduction at 100 nM,HCT116 cells,three-folds
same,lentiviral transduction at 100 nM,HCT116 cells,30%
same,optimal dose to promote lentiviral transduction,HCT116 cells,500 nM
YGRKKRRQRRR GG TNVFNATFEIWHDGEFGTINNFRLGRLPSV (YGRKKRRQRRRGGTNVFNATFEIWHDGEFGTINNFRLGRLPSV; Synthetic TB1 267-296) [Tat-Bec(267-296)],dose capable to promote optimal lentiviral transduction,HCT116 cells,≥ 1 µM
YGRKKRRQRRR GG TNVFNATFHIWHSGQFGT (YGRKKRRQRRRGGTNVFNATFHIWHSGQFGT; Synthetic TB WT) [Tat-BecWT],capacity to promote lentiviral transduction at 2.5 μM,HCT116 cells,capable to promote lentiviral transduction as efficiently as TB1
same,capacity to promote lentiviral transduction at 5 μM,HCT116 cells,no longer active
same,effect on lentiviral transduction at 100 nM,HCT116 cells,no effect
same,optimal dose to promote lentiviral transduction,HCT116 cells,1000 nM
YGRKKRRQRRR GG TNVFNATFHIWHSGQFGTINNFRLGRLPSV (YGRKKRRQRRRGGTNVFNATFHIWHSGQFGTINNFRLGRLPSV; Synthetic TB WT 267-296) [Tat-Bec(267-296)WT],capacity to promote lentiviral transduction at 2.5 μM,HCT116 cells,promoting the lentiviral transduction but less efficiently than the Tat-Bec(267-296) peptide
YGRKKRRQRRR GG VENQMRYAQTQLDKLKKTNVFNATFEIWHDGEF (YGRKKRRQRRRGGVENQMRYAQTQLDKLKKTNVFNATFEIWHDGEF; Synthetic TB1 250-282) [Tat-Bec(250-282)],capacity to promote lentiviral transduction at 2.5 μM,HCT116 cells,most performant peptide at a low dose
YGRKKRRQRRR TNVFNATFEIWHDGEFGTINNFRLGRLPSV (YGRKKRRQRRRTNVFNATFEIWHDGEFGTINNFRLGRLPSV; Synthetic modified Tat-Beclin-1 + beclin-1 285-296) [Tat-Bec(267-296)dGG],increase of the level of viral transduction,HCT116 cells,nearly five folds

# From patent US11371061B2, “Compositions and methods for improving viral vector efficiency” (GENETHON, priority 2015, dated 2022)
